Read-outs that look alike come from different tables or passages of the source.
How the values were obtained:
Type in all cases: cell-based
Nurr1 [1] = biological target: T1, Nurr1 (Homo sapiens, UniProt P43354); assay: Nurr1 activity, luciferase reporter analysis in transfected BE(2)C cells; conditions: for Nurr1 activity (luciferase), multiple of 0.1% DMSO control: BE(2)C cells, 20 hours
T1 construct: 3 types of plasmid DNA, including DNA containing Nurr1-LBD and DNA with β-galactosidase, were transfected into BE(2)C cells; expressed in transfected cells; host or cells: BE(2)C cells

Nurr1 [2] = biological target: T1, Nurr1; assay: as above; conditions: for Nurr1 activity (luciferase), multiple of 0.1% DMSO control: BE(2)C cells, 20 hours; remark: listed apart in the source
Text: As in Example 2, Nurr1 activity according to the concentration of the diterpene isolated from the extract of Daphne genkwa was confirmed through luciferase analysis.
Specifically, after synthesizing a vector in which the gene having the nucleotide sequence (5′-CTCGGAGGACAGTACTCCG-3 SEQ ID NO:1) to which the GLA4 gene can bind is repeated 8 times to the reporter gene, luciferase, is synthesized, 3 types of plasmid DNA, including DNA containing Nurr1-LBD and DNA with β-galactosidase, were transfected into BE(2)C cells. After 6 hours, the compounds 1 to 10 separated in Example 2 were treated according to the concentrations in Table 1 below. The cells thus treated were cultured in a 5% carbon dioxide incubator at 37° C. for 20 hours, and then luciferase analysis was performed. As a control, 0.1% DMSO was used, and at this time, the activity was increased by multiple, and Amodiaquine was used as a positive control.

[3] = tested on: nitric oxide production in microglia BV-2 cells; assay: Inhibition of nitric oxide production in LPS-treated microglia BV-2 cells (Griess reagent); conditions: Mus musculus
Text: The death of cranial nerve cells due to an inflammatory reaction in a microglia cell has been reported as one of the main causes of degenerative brain diseases such as dementia and Parkinson's disease. (Sarkar S et al., Neurotoxicology, 44, 250-262 (2014); Bower J H et al., Neurology, 67, 494-496 (2006)). Accordingly, the inhibition activity on nitric oxide production, a representative inflammatory factor, was investigated for the compounds isolated from Example 2 in a microglia. Specifically, microglia BV-2 cells were put into a 96-well plate at 5×10^4 cells/well, and cultured for 2 days, followed by incubation with LPS ([…]) for 24 hours with the compound isolated in Example 2 above. The culture supernatant was measured for absorbance at 540 nm using the Griess reagent to quantify nitrite to investigate the amount of nitric oxide production. Minocyline was used as a positive control.

[4] = High concentration = 1 μM (Table 1)
[5] = Low concentration = 0.01 μM (Table 1)
[6] = Mid concentration = 0.1 μM (Table 1)
[7] = BV-2 cells, LPS 24 hours, nitrite by Griess reagent, read-out: IC50, inhibition of nitric oxide production (Table 4)
[8] = High concentration = 10 μM (Table 1)
[9] = Low concentration = 0.1 μM (Table 1)
[10] = Mid concentration = 1 μM (Table 1)
[11] = BV-2, 24 h, read-out: IC50, inhibition of nitric oxide production (Table 4)

T1 sequence (P43354 360-595 limits assumed): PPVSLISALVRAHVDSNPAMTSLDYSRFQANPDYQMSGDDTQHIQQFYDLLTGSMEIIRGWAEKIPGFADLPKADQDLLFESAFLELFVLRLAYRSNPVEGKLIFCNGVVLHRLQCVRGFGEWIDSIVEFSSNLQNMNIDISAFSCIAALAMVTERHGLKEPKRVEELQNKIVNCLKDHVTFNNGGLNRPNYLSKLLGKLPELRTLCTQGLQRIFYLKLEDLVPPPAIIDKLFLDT

| Compound | IC50 [3, 7] [nM] | Nurr1 activity (luciferase), multiple of 0.1% DMSO control (Nurr1 [2]; [8]) | Nurr1 activity (luciferase), multiple of 0.1% DMSO control (Nurr1 [2]; [9]) | Nurr1 activity (luciferase), multiple of 0.1% DMSO control (Nurr1 [2]; [10]) | further results |
| --- | --- | --- | --- | --- | --- |
| CCN(CC)Cc1cc(Nc2ccnc3cc(Cl)ccc23)ccc1O [AQ, Amodiaquine, reference compound] |  |  |  |  | Nurr1 activity (luciferase), multiple of 0.1% DMSO control (Nurr1 [1]; Low concentration = 5 μM (Table 1)): 0.9; Nurr1 activity (luciferase), multiple of 0.1% DMSO control (Nurr1 [1]; Mid concentration = 20 μM (Table 1)): 1.8 |
| C=C(C)[C@@]12O[C@@]3(c4ccccc4)O[C@@H]1C1[C@@H]4O[C@]4(CO)[C@@H](O)[C@]4(O)C(=O)C(C)=CC4[C@@]1(O3)[C@H](C)[C@H]2OC(C)=O (stereo partly drawn) [Formula 1, (2S,3aR,3cS,4aR,5S,5aS,8bR,9R,10R,10aS)-5,5a-dihydroxy-4a-(hydroxymethyl)-7,9-dimethyl-6-oxo-2-phenyl-10a-(prop-1-en-2-yl)-3a,3b,3c,4a,5,5a,8a,9,10,10a-decahydro-6H-2,8b-epoxyoxireno[2″,3″:6′,7′]azuleno[5′,4′:3,4]benzo[1,2-d][1,3]dioxol-10-yl acetate] | 370 ± 150 |  |  |  | Nurr1 activity (luciferase), multiple of 0.1% DMSO control (Nurr1 [2]; [4]): 1.7; Nurr1 activity (luciferase), multiple of 0.1% DMSO control (Nurr1 [2]; [5]): 1.0; Nurr1 activity (luciferase), multiple of 0.1% DMSO control (Nurr1 [2]; [6]): 1.5 |
| C=C(C)[C@]12C[C@@H](C)[C@@]34O[C@](c5ccccc5)(O[C@@H]1C3[C@H](O)[C@@](O)(COC(=O)c1ccccc1)[C@@H](O)[C@@]1(O)C4C[C@H](C)[C@@H]1O)O2 (stereo partly drawn) [Formula 3, ((2S,3aR,4S,5S,6S,6aR,7S,8S,9bR,10R,11aR)-4,5,6,6a,7-pentahydroxy-8,10-dimethyl-2-phenyl-11a-(prop-1-en-2-yl)dodecahydro-5H-2,9b-epoxyazuleno[5′,4′:3,4]benzo[1,2-d][1,3]dioxol-5-yl)methyl benzoate] |  | 1.4 | 1.2 | 1.4 | IC50 [3, 11]: 1060 ± 120 nM |
| C=C(C)[C@]12C[C@@H](C)[C@@]34O[C@](c5ccccc5)(O[C@@H]1C3[C@@H]1O[C@]1(COC(=O)c1ccccc1)[C@@H](O)[C@@]1(O)C4C[C@H](C)[C@@H]1O)O2 (stereo partly drawn) [Formula 4, ((2S,3aR,3cS,4aR,5S,5aR,6S,7S,8bR,9R,10aR)-5,5a,6-trihydroxy-7,9-dimethyl-2-phenyl-10a-(prop-1-en-2-yl)dodecahydro-4aH-2,8b-epoxyoxireno[2″,3″:6′,7′]azuleno[5′,4′:3,4]benzo[1,2-d][1,3]dioxol-4a-yl)methyl benzoate] |  | 1.7 | 1.0 | 1.4 | IC50 [3, 11]: 180 ± 40 nM |
| C=C(C)[C@]1(O)C[C@@H](C)[C@@]2(O)C([C@H]1OC(=O)c1ccccc1)[C@H](O)[C@@](O)(COC(=O)c1ccccc1)[C@@H](O)[C@@]1(O)C2C[C@H](C)[C@@H]1O (stereo partly drawn) [Formula 5, ((2S,3S,3aR,4S,5S,6S,7R,8R,10R,10aR)-7-(benzoyloxy)-3,3a,4,5,6,8,10a-heptahydroxy-2,10-dimethyl-8-(prop-1-en-2-yl)tetradecahydrobenzo[e]azulen-5-yl)methyl benzoate] | 4670 ± 3100 | 1.9 | 0.9 | 1.2 |  |
| C=C(C)[C@@]12O[C@@]3(c4ccccc4)O[C@@H]1C1[C@@H]4O[C@]4(CO)[C@@H](O)[C@]4(O)C(=O)[C@@H](C)CC4[C@@]1(O3)[C@H](C)[C@H]2OC(C)=O (stereo partly drawn) [Formula 6, (2S,3aR,3cS,4aR,5S,5aS,7S,8bR,9R,10R,10aS)-5,5a-dihydroxy-4a-(hydroxymethyl)-7,9-dimethyl-6-oxo-2-phenyl-10a-(prop-1-en-2-yl)dodecahydro-6H-2,8b-epoxyoxireno[2″,3″:6′,7′]azuleno[5′,4′:3,4]benzo[1,2-d][1,3]dioxol-10-yl acetate] | 250 ± 60 |  |  |  | Nurr1 activity (luciferase), multiple of 0.1% DMSO control (Nurr1 [2]; [4]): 2.4; Nurr1 activity (luciferase), multiple of 0.1% DMSO control (Nurr1 [2]; [5]): 1.0; Nurr1 activity (luciferase), multiple of 0.1% DMSO control (Nurr1 [2]; [6]): 1.8 |
| C=C(C)[C@]12C[C@@H](C)[C@@]34O[C@](c5ccccc5)(O[C@@H]1C3[C@H](O)[C@@](O)(CO)[C@@H](O)[C@@]1(O)C4C=C(C)[C@@H]1O)O2 (stereo partly drawn) [Formula 7, (2S,3aR,4S,5S,6S,6aR,7S,9bR,10R,11aR)-5-(hydroxymethyl)-8,10-dimethyl-2-phenyl-11a-(prop-1-en-2-yl)-3a,3b,4,5,6,7,9a,10,11,11a-decahydro-6aH-2,9b-epoxyazuleno[5′,4′:3,4]benzo[1,2-d][1,3]dioxole-4,5,6,6a,7-pentaol] | 3410 ± 990 | 2.0 | 1.2 | 2.6 |  |
| C=C(C)[C@]12C[C@@H](C)[C@@]34O[C@](c5ccccc5)(O[C@@H]1C3[C@@H]1O[C@]1(CO)[C@@H](O)[C@@]1(O)C4C[C@H](C)[C@@H]1O)O2 (stereo partly drawn) [Formula 8, (2S,3aR,3cS,4aR,5S,5aR,6S,7S,8bR,9R,10aR)-4a-(hydroxymethyl)-7,9-dimethyl-2-phenyl-10a-(prop-1-en-2-yl)dodecahydro-5aH-2,8b-epoxyoxireno[2″,3″:6′,7′]azuleno[5′,4′:3,4]benzo[1,2-d][1,3]dioxole-5,5a,6-triol] | 1220 ± 130 | 1.6 | 1.7 | 2.0 | Nurr1 activation (in words) (Nurr1 [2]; no concentration stated): better effect of increasing Nurr1 activity |
| C=C(C)[C@]12C[C@@H](C)[C@@]34O[C@](c5ccccc5)(O[C@@H]1C3[C@@H]1O[C@]1(CO)[C@@H](O)[C@]1(O)C(=O)[C@@H](C)CC41)O2 (stereo partly drawn) [Formula 9, (2S,3aR,3cS,4aR,5S,5aS,7S,8bR,9R,10aR)-5,5a-dihydroxy-4a-(hydroxymethyl)-7,9-dimethyl-2-phenyl-10a-(prop-1-en-2-yl)dodecahydro-6H-2,8b-epoxyoxireno[2″,3″:6′,7′]azuleno[5′,4′:3,4]benzo[1,2-d][1,3]dioxol-6-one] | 1600 ± 370 | 1.5 | 1.7 | 2.4 |  |
| C=C(C)[C@]12C[C@@H](C)[C@@]34OC(c5ccccc5)(O[C@@H]1C3[C@@H]1O[C@]1(CO)[C@@H](O)[C@]13OC(=O)O[C@H]1[C@@H](C)CC43)O2 (some centres unmarked) [Formula 10, genkwanin I] | 7790 ± 910 |  |  |  | Nurr1 activity (luciferase), multiple of 0.1% DMSO control (Nurr1 [1]; High concentration = 100 μM (Table 1)): 1.1; Nurr1 activity (luciferase), multiple of 0.1% DMSO control (Nurr1 [1]; Low concentration = 1 μM (Table 1)): 1.8; Nurr1 activity (luciferase), multiple of 0.1% DMSO control (Nurr1 [1]; Mid concentration = 10 μM (Table 1)): 1.9 |
| CN(C)c1ccc(O)c2c1C[C@H]1C[C@H]3[C@H](N(C)C)C(O)=C(C(N)=O)C(=O)[C@@]3(O)C(O)=C1C2=O [Minocycline, reference compound] | 21300 ± 480 |  |  |  |  |
| C=C(C)[C@]12C[C@@H](C)[C@@]34O[C@](c5ccccc5)(O[C@@H]1C3[C@@H]1O[C@]1(CO)[C@@H](O)[C@@]1(O)C4C[C@H](C)[C@@H]1OC(=O)/C=C/C=C/CCCCC)O2 (stereo partly drawn) [compound 12, (2S,3aR,3cS,4aR,5S,5aS,6S,7S,8bR,9R,10aR)-5,5a-dihydroxy-4a-(hydroxymethyl)-7,9-dimethyl-2-phenyl-10a-(prop-1-en-2-yl)dodecahydro-6H-2,8b-epoxyoxireno[2″,3″:6′,7′]azuleno[5′,4′:3,4]benzo[1,2-d][1,3]dioxol-6-yl (2E,4E)-deca-2,4-dienoate] |  |  |  |  | Nurr1 activity (Table 3), relative to control treatment (Nurr1 [1]; 0.03 μM): 1.4 ± 0.18; Nurr1 activity (Table 3), relative to control treatment (Nurr1 [1]; 0.1 μM): **1.29 ± 0.04; Nurr1 activity (Table 3), relative to control treatment (Nurr1 [1]; 0.3 μM): *1.33 ± 0.06; Nurr1 activity (Table 3), relative to control treatment (Nurr1 [1]; 1 μM): *1.62 ± 0.21; IC50 ([3]; BV-2 cells, LPS 24 hours, nitrite by Griess reagent, read-out: IC50, inhibition of nitric oxide production (Table 5)): 2300 nM |
| C=C(C)[C@@]12O[C@@]3(/C=C/C=C/CCCCC)O[C@@H]1[C@@H]1[C@@H]4O[C@]4(CO)[C@@H](O)[C@]4(O)C(=O)C(C)=C[C@H]4[C@@]1(O3)[C@H](C)[C@H]2OC(C)=O [compound 15, prostratin Q] |  |  |  |  | Nurr1 activity (Table 3), relative to control treatment (Nurr1 [1]; 0.03 μM): 1.17 ± 0.22; Nurr1 activity (Table 3), relative to control treatment (Nurr1 [1]; 0.1 μM): 1.28 ± 0.35; Nurr1 activity (Table 3), relative to control treatment (Nurr1 [1]; 0.3 μM): **1.59 ± 0.08; Nurr1 activity (Table 3), relative to control treatment (Nurr1 [1]; 1 μM): *2.12 ± 0.37; IC50 ([3]; BV-2, 24 h, read-out: IC50, inhibition of nitric oxide production (Table 5)): 3730 nM |

— patent US12226395B2, “Composition for preventing or treating neurodegenerative diseases, containing diterpene-based compound” (KOREA RESEARCH INSTITUTE OF BIOSCIENCE AND BIOTECHNOLOGY, priority 2017, dated 2025)
